From patent US5624923A, “Tricyclic diazepine vasopressin antagonists and oxytocin antagonists” (priority 1995, dated 1997)
Several values for one entry are separate records, joined by “and”; a condition that tells them apart may be missing. Equal entries are not always repeated.

Columns and labels:
[1] = biological target: T1, Rat Kidney Medullary V2 Receptors (Rattus norvegicus, UniProt Q00788); assay: Binding Assay to Rat Kidney Medullary V2 Receptors; details: for IC50: rat kidney medulla membranes, read-out: V2 IC50; for inhibition at 10 µM: rat
T1 construct: Medullary tissues from rat kidneys are dissected out; from tissue; host or cells: rat kidney medulla membranes
Summary of the method: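 Membranes were prepared from rat kidney medulla and stored in 50.0 mM Tris-HCl pH 7.4 with 0.2% BSA and 0.1 mM PMSF. Radioligand competition ran 120 min at bench temperature, with 1.0 μM unlabeled ligand defining nonspecific binding. Compounds were added in 50% DMSO; filtration, tritium scintillation counting, IC50 from competition analysis.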

[2] = tested on: Vasopressin V2; assay: Vasopressin V2 Antagonist Activity in Conscious Hydrated Rats; type: in vivo, rat; details: AVP 0.4 μg/kg i.p.
Summary of the method: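 Four-hour urine output, osmolality and electrolytes (Na+, K+, Cl−) recorded in water-loaded rats (30 mL/kg deionized water orally) given AVP i.p. at 0.4 μg/kg. Test compounds were given orally at 0.1–100 mg/kg 1 h before AVP; 2–4 rats per compound.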

[3] = tested on: Vasopressin V1; assay: Vasopressin V1 Antagonist Activity in Conscious Rats (vasopressin vasopressor response); type: in vivo, rat; set-up: Average Change: unit not given here; details: for % Inhibition / Average Change: SHR
Summary of the method: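 Conscious rats are restrained supine, and under local 2% procaine a PE 10/20 cannula is passed through the ventral caudal tail artery into the lower abdominal aorta. The caudal vein is cannulated for intravenous dosing. Blood pressure is recorded with a Statham P23Db transducer, and vasopressin injections are repeated after compound dosing. Percent antagonism is calculated against the pre-drug vasopressor response taken as 100%.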

[4] = 3 mg/kg i.v., VAS 0.01 i.u./kg, 30 min
[5] = 3 mg/kg i.v., VAS 0.01 i.u./kg, 60 min
[6] = 3 mg/kg i.v., VAS 0.01 i.u./kg, 90 min
[7] = 3 mg/kg i.v., VAS 0.01 i.u./kg, 120 min
[8] = 3 mg/kg i.v., VAS 0.01 i.u./kg, 180 min
[9] = 3 mg/kg i.v., VAS 0.01 i.u./kg, 240 min
[10] = 3 mg/kg i.v., VAS 0.01 i.u./kg, 300 min
[11] = 3 mg/kg i.v., VAS 0.02 i.u./kg, 30 min
[12] = 3 mg/kg i.v., VAS 0.02 i.u./kg, 60 min
[13] = 3 mg/kg i.v., VAS 0.02 i.u./kg, 90 min
[14] = 3 mg/kg i.v., VAS 0.02 i.u./kg, 120 min
[15] = 3 mg/kg i.v., VAS 0.02 i.u./kg, 300 min
[16] = 10 mg/kg p.o., VAS 0.01 i.u./kg, 30 min
[17] = 10 mg/kg p.o., VAS 0.01 i.u./kg, 60 min
[18] = 10 mg/kg p.o., VAS 0.01 i.u./kg, 120 min
[19] = 10 mg/kg p.o., VAS 0.01 i.u./kg, 300 min
[20] = 10 mg/kg p.o., VAS 0.02 i.u./kg, 30 min
[21] = 10 mg/kg p.o., VAS 0.02 i.u./kg, 60 min
[22] = 10 mg/kg p.o., VAS 0.02 i.u./kg, 300 min
[23] = 30 mg/kg p.o., VAS 0.01 i.u./kg, 30 min
[24] = 30 mg/kg p.o., VAS 0.01 i.u./kg, 60 min
[25] = 30 mg/kg p.o., VAS 0.01 i.u./kg, 90 min
[26] = 30 mg/kg p.o., VAS 0.01 i.u./kg, 120 min
[27] = 30 mg/kg p.o., VAS 0.01 i.u./kg, 180 min
[28] = 30 mg/kg p.o., VAS 0.01 i.u./kg, 240 min
[29] = 30 mg/kg p.o., VAS 0.02 i.u./kg, 30 min
[30] = 30 mg/kg p.o., VAS 0.02 i.u./kg, 60 min
[31] = 30 mg/kg p.o., VAS 0.02 i.u./kg, 90 min
[32] = 30 mg/kg p.o., VAS 0.02 i.u./kg, 120 min
[33] = 30 mg/kg p.o., VAS 0.02 i.u./kg, 180 min
[34] = 30 mg/kg p.o., VAS 0.02 i.u./kg, 240 min

T1 sequence (Q00788 whole entry): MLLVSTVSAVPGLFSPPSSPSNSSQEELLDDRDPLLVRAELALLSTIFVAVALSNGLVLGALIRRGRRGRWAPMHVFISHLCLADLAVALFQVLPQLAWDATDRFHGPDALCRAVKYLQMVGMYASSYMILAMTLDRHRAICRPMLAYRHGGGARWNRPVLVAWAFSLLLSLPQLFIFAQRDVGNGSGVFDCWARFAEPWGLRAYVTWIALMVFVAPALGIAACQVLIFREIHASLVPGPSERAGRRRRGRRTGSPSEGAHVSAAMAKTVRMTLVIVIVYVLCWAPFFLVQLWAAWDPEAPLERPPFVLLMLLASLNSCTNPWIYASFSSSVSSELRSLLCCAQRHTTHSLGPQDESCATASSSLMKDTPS

Cc1ccccc1C(=O)Nc1ccc(C(=O)N2Cc3cccn3Cc3ccccc32)cc1 [Example 3, 2-Methyl-N-[4-(5H-pyrrolo[2,1-c][1,4]-benzodiazepin-10(11H)-ylcarbonyl)phenyl]benzamide]
IC50 [1]: 4 nM
Osmolality ([2]; 1 mg/kg orally): 515 ± 79 mOsm/kg
Urine Volume ([2]; 1 mg/kg orally): 6.5 ± 1 ml/4 hrs
Osmolality ([2]; 3 mg/kg orally): 584 ± 56 mOsm/kg
Urine Volume ([2]; 3 mg/kg orally): 9.6 ± 0.9 ml/4 hrs
Osmolality ([2]; 10 mg/kg orally): 567 ± 33 mOsm/kg
Urine Volume ([2]; 10 mg/kg orally): 15.8 ± 1 ml/4 hrs
% Inhibition [3, 4]: 70% and 69%
Average Change [3, 4]: 15
% Inhibition [3, 5]: 75% and 57%
Average Change [3, 5]: 12.5 and 21
% Inhibition [3, 6]: 65% and 76%
Average Change [3, 6]: 17.5 and 12
% Inhibition [3, 7]: 60% and 58%
Average Change [3, 7]: 20 and 20.5
% Inhibition [3, 8]: 40% and 57%
Average Change [3, 8]: 30 and 21
% Inhibition [3, 9]: 20% and 35%
Average Change [3, 9]: 40 and 32
% Inhibition [3, 10]: 61%
Average Change [3, 10]: 19
% Inhibition [3, 11]: 57%
Average Change [3, 11]: 23.5 and 22
% Inhibition [3, 12]: 68% and 44%
Average Change [3, 12]: 17.5 and 29
% Inhibition [3, 13]: 73% and 46%
Average Change [3, 13]: 15 and 28
% Inhibition [3, 14]: 41% and 64%
Average Change [3, 14]: 32.5 and 18.5
Average Change ([3]; 3 mg/kg i.v., VAS 0.02 i.u./kg, 180 min): 55 and 28.5
Average Change ([3]; 3 mg/kg i.v., VAS 0.02 i.u./kg, 240 min): 52.5 and 27.5
% Inhibition [3, 15]: 41%
Average Change [3, 15]: 30.5
% Inhibition [3, 16]: 78% and 71% and 73%
Average Change [3, 16]: 12.5 and 10 and 11
% Inhibition [3, 17]: 70% and 71%
Average Change [3, 17]: 17.5 and 10.5 and 11.5
% Inhibition ([3]; 10 mg/kg p.o., VAS 0.01 i.u./kg, 90 min): 81% and 70%
% Inhibition [3, 18]: 74% and 59% and 69%
Average Change [3, 18]: 15 and 14.5 and 12.5
% Inhibition ([3]; 10 mg/kg p.o., VAS 0.01 i.u./kg, 180 min): 65% and 77% and 61%
% Inhibition ([3]; 10 mg/kg p.o., VAS 0.01 i.u./kg, 240 min): 61% and 76% and 51%
% Inhibition [3, 19]: 59%
Average Change [3, 19]: 16.5
% Inhibition [3, 20]: 65% and 66% and 70%
Average Change [3, 20]: 17.5 and 18.5 and 16
% Inhibition [3, 21]: 55% and 66% and 58%
Average Change [3, 21]: 22.5 and 18.5
% Inhibition [3, 22]: 56%
Average Change [3, 22]: 24
% Inhibition [3, 23]: 72%
Average Change [3, 23]: 15
% Inhibition [3, 24]: 57%
Average Change [3, 24]: 22.5
% Inhibition [3, 25]: 81%
Average Change [3, 25]: 10
% Inhibition [3, 26]: 81%
Average Change [3, 26]: 10
% Inhibition [3, 27]: 81%
Average Change [3, 27]: 10
% Inhibition [3, 28]: 91%
Average Change [3, 28]: 5
% Inhibition [3, 29]: 62%
Average Change [3, 29]: 20
% Inhibition [3, 30]: 57%
Average Change [3, 30]: 22.5
% Inhibition [3, 31]: 62%
Average Change [3, 31]: 20
% Inhibition [3, 32]: 76%
Average Change [3, 32]: 12.5
% Inhibition [3, 33]: 67%
Average Change [3, 33]: 17.5
% Inhibition [3, 34]: 81%
Average Change [3, 34]: 10

O=C(CN1CCOCC1)Nc1ccc(C(=O)N2Cc3cccn3Cc3ccccc32)cc1 [Example 590, N-[4-(5H-pyrrolo[2,1-c][1,4]benzodiazepin-10(11H)-ylcarbonyl)phenyl]-4-morpholineacetamide]
inhibition at 10 µM [1]: 81%
Osmolality ([2]; 10 mg/kg orally): 1355 mOsm/kg
Urine Volume ([2]; 10 mg/kg orally): 3 ml/4 hrs
Max. % Inhibition ([3]; 30 mg/kg i.v.): 89%
Time (of max. % inhibition) ([3]; 30 mg/kg i.v.): 120 min

O=C(Nc1ccc(C(=O)N2Cc3ccnn3Cc3ccccc32)cc1)c1ccc(Cl)cc1Cl [Example 217, N-[4-(4H-Pyrazolo[5,1-c][1,4]benzo-diazepin-5(10H)-ylcarbonyl)phenyl]-2,4-dichlorobenzamide]
IC50 [1]: 5 nM
Osmolality ([2]; 10 mg/kg orally): 466 mOsm/kg
Urine Volume ([2]; 10 mg/kg orally): 14.3 ml/4 hrs
Max. % Inhibition ([3]; 30 mg/kg i.v.): 57%
Time (of max. % inhibition) ([3]; 30 mg/kg i.v.): 90 min

CC(=O)OC(C(=O)Nc1ccc(C(=O)N2Cc3cccn3Cc3ccccc32)cc1)c1ccccc1 (stereo not drawn) [Example 587, α-(Acetyloxy)-N-[4-(5H-pyrrolo[2,1-c][1,4]benzodiazepin-10(11H)-ylcarbonyl)phenyl]benzeneacetamide]
IC50 [1]: 22 nM
Osmolality ([2]; 10 mg/kg orally): 868 mOsm/kg
Urine Volume ([2]; 10 mg/kg orally): 9 ml/4 hrs
Max. % Inhibition ([3]; 10 mg/kg i.v.): 75%
Time (of max. % inhibition) ([3]; 10 mg/kg i.v.): 60 min

Cc1ccccc1C(=O)Nc1ccc(C(=O)N2Cc3cccn3Cc3ccccc32)c(Cl)c1 [Example 470]
IC50 [1]: 4.5 nM
Osmolality ([2]; 10 mg/kg orally): 387 mOsm/kg
Urine Volume ([2]; 10 mg/kg orally): 17 ml/4 hrs
Max. % Inhibition ([3]; 10 mg/kg i.v.): 87%
Time (of max. % inhibition) ([3]; 10 mg/kg i.v.): 180 min
Max. % Inhibition ([3]; 30 mg/kg p.o.): 69%
Time (of max. % inhibition) ([3]; 30 mg/kg p.o.): 180 min

Cc1ccccc1C(=O)Nc1ccc(C(=O)N2Cc3ccc(C(=O)C(F)(F)F)n3Cc3ccccc32)c(Cl)c1 [Example 595, N-[4-[[3-(Trifluoroacetyl)-5H-pyrrolo[2,1-c][1,4]benzodiazepin-10(11H)-yl]carbonyl]-3-chlorophenyl]-2-methylbenzamide]
inhibition at 10 µM [1]: 93%
Osmolality ([2]; 10 mg/kg orally): 1474 mOsm/kg
Urine Volume ([2]; 10 mg/kg orally): 8.3 ml/4 hrs
Max. % Inhibition ([3]; 30 mg/kg i.v.): 44%
Time (of max. % inhibition) ([3]; 30 mg/kg i.v.): 90 min

O=C(Nc1ccc(C(=O)N2Cc3cccn3Cc3ccccc32)cc1)c1sccc1Cl [Example 476, N-[4-(5H-pyrrolo[2,1-c][1,4]benzodiazepin-10(11H)-ylcarbonyl)phenyl]-3-chlorothiophene-2-carboxamide]
IC50 [1]: 69 nM
Osmolality ([2]; 10 mg/kg orally): 1233 mOsm/kg
Urine Volume ([2]; 10 mg/kg orally): 5 ml/4 hrs
Max. % Inhibition ([3]; 10 mg/kg i.v.): 78%
Time (of max. % inhibition) ([3]; 10 mg/kg i.v.): 30 min
Max. % Inhibition ([3]; 30 mg/kg p.o.): 19%
Time (of max. % inhibition) ([3]; 30 mg/kg p.o.): 180 min
